Experimental data taken from article PMC11277489, “Novel Piperazine Derivatives of Vindoline as Anticancer Agents” (International Journal of Molecular Sciences, 2024).

Legend:
BT-549 = experiment: NCI60 one-dose screen (10 μM), Breast Cancer; format: cell-based; details: Homo sapiens; 10 μM; BT-549, Breast Cancer; read-out: Growth percent rate
MDA-MB-468 = experiment: NCI60 one-dose screen (10 μM), Breast Cancer; format: cell-based; details: Homo sapiens; 10 μM; MDA-MB-468, Breast Cancer; read-out: Growth percent rate
SR = experiment: NCI60 one-dose screen (10 μM), Leukemia; format: cell-based; details: Homo sapiens, 10 μM, Leukemia, read-out: Growth percent rate
NCI-H226 = experiment: NCI60 one-dose screen (10 μM), Non-small Cell Lung Cancer; format: cell-based; details: Homo sapiens; 10 μM; NCI-H226, Non-small Cell Lung Cancer; read-out: Growth percent rate
EKVX = experiment: NCI60 five-dose screen, Non-small Cell Lung Cancer; format: cell-based; details: Homo sapiens, Non-small Cell Lung Cancer, five-dose screen, read-out: GI50
UACC-62 [1] = experiment: NCI60 five-dose screen, Melanoma; format: cell-based; details: Homo sapiens; UACC-62, Melanoma; five-dose screen; read-out: GI50
K-562 = experiment: NCI60 five-dose screen, Leukemia; format: cell-based; details: Homo sapiens, K562; K-562, Leukemia; five-dose screen; read-out: GI50
SK-OV-3 = experiment: NCI60 one-dose screen (10 μM), Ovarian Cancer; format: cell-based; details: Homo sapiens; 10 μM; SK-OV-3, Ovarian Cancer; read-out: Growth percent rate
NCI/ADR-RES [2] = experiment: NCI60 five-dose screen, Ovarian Cancer; format: cell-based; details: Homo sapiens, Ovarian Cancer, five-dose screen, read-out: GI50
HOP-92 [3] = experiment: NCI60 five-dose screen, Non-small Cell Lung Cancer; format: cell-based; details: Homo sapiens; HOP-92, Non-small Cell Lung Cancer; five-dose screen; read-out: GI50
ACHN = experiment: NCI60 five-dose screen, Renal Cancer; format: cell-based; details: Homo sapiens, Renal Cancer, five-dose screen, read-out: GI50
HOP-92 [4] = experiment: NCI60 one-dose screen (10 μM), Non-small Cell Lung Cancer; format: cell-based; details: Homo sapiens; 10 μM; HOP-92, Non-small Cell Lung Cancer; read-out: Growth percent rate
IGROV1 = experiment: NCI60 five-dose screen, Ovarian Cancer; format: cell-based; details: Homo sapiens, IGROV-1; IGROV1, Ovarian Cancer; five-dose screen; read-out: GI50
MDA-MB231ATCC = experiment: NCI60 five-dose screen, Breast Cancer; format: cell-based; details: Homo sapiens, MDA-MB-231; MDA-MB231ATCC, Breast Cancer; five-dose screen; read-out: GI50
NCI-H460 [5] = experiment: NCI60 five-dose screen, Non-small Cell Lung Cancer; format: cell-based; details: Homo sapiens; NCI-H460, Non-small Cell Lung Cancer; five-dose screen; read-out: GI50
OVCAR-5 [6] = experiment: NCI60 one-dose screen (10 μM), Ovarian Cancer; format: cell-based; details: Homo sapiens; 10 μM; OVCAR-5, Ovarian Cancer; read-out: Growth percent rate
HOP-62 = experiment: NCI60 five-dose screen, Non-small Cell Lung Cancer; format: cell-based; details: Homo sapiens; HOP-62, Non-small Cell Lung Cancer; five-dose screen; read-out: GI50
SNB-75 = experiment: NCI60 one-dose screen (10 μM), CNS Cancer; format: cell-based, human; details: Homo sapiens; 10 μM; SNB-75, CNS Cancer; read-out: Growth percent rate
SF-539 = experiment: NCI60 five-dose screen, CNS Cancer; format: cell-based; details: Homo sapiens; SF-539, CNS Cancer; five-dose screen; read-out: GI50
TK-10 = experiment: NCI60 five-dose screen, Renal Cancer; format: cell-based; details: Homo sapiens; TK-10, Renal Cancer; five-dose screen; read-out: GI50
LOX IMVI = experiment: NCI60 five-dose screen, Melanoma; format: cell-based; details: Homo sapiens, Melanoma, five-dose screen, read-out: GI50
U251 = experiment: NCI60 one-dose screen (10 μM), CNS Cancer; format: cell-based; details: Homo sapiens, U-251; 10 μM; U251, CNS Cancer; read-out: Growth percent rate
OVCAR-5 [7] = experiment: NCI60 five-dose screen, Ovarian Cancer; format: cell-based; details: Homo sapiens; OVCAR-5, Ovarian Cancer; five-dose screen; read-out: GI50
UACC-62 [8] = experiment: NCI60 one-dose screen (10 μM), Melanoma; format: cell-based; details: Homo sapiens; 10 μM; UACC-62, Melanoma; read-out: Growth percent rate
HT29 = experiment: NCI60 five-dose screen, Colon Cancer; format: cell-based; details: Homo sapiens, HT-29; HT29, Colon Cancer; five-dose screen; read-out: GI50
MDA-MB-435 = experiment: NCI60 five-dose screen, Melanoma; format: cell-based; details: Homo sapiens; MDA-MB-435, Melanoma; five-dose screen; read-out: GI50
HL-60(TB) = experiment: NCI60 five-dose screen, Leukemia; format: cell-based; details: Homo sapiens; HL-60(TB), Leukemia; five-dose screen; read-out: GI50
SNB-19 = experiment: NCI60 five-dose screen, CNS Cancer; format: cell-based; details: Homo sapiens; SNB-19, CNS Cancer; five-dose screen; read-out: GI50
DU-145 [9] = experiment: NCI60 one-dose screen (10 μM), Prostate Cancer; format: cell-based; details: Homo sapiens; 10 μM; DU-145, Prostate Cancer; read-out: Growth percent rate
A498 = experiment: NCI60 one-dose screen (10 μM), Renal Cancer; format: cell-based; details: Homo sapiens; 10 μM; A498, Renal Cancer; read-out: Growth percent rate
[10] = tested on: 60 human tumor cell lines (NCI60); experiment: NCI60 one-dose screen (10 μM), whole panel; format: cell-based; details: 10 μM; mean over 60 human cancer cell lines; read-out: Growth percent rate, Mean
T-47D [11] = experiment: NCI60 five-dose screen, Breast Cancer; format: cell-based; details: Homo sapiens, T47D; T-47D, Breast Cancer; five-dose screen; read-out: GI50
SK-MEL-5 = experiment: NCI60 five-dose screen, Melanoma; format: cell-based; details: Homo sapiens; SK-MEL-5, Melanoma; five-dose screen; read-out: GI50
UO-31 = experiment: NCI60 one-dose screen (10 μM), Renal Cancer; format: cell-based; details: Homo sapiens; 10 μM; UO-31, Renal Cancer; read-out: Growth percent rate
PC-3 = experiment: NCI60 one-dose screen (10 μM), Prostate Cancer; format: cell-based; details: Homo sapiens; 10 μM; PC-3, Prostate Cancer; read-out: Growth percent rate
SF-268 = experiment: NCI60 five-dose screen, CNS Cancer; format: cell-based; details: Homo sapiens; SF-268, CNS Cancer; five-dose screen; read-out: GI50
NCI/ADR-RES [12] = experiment: NCI60 one-dose screen (10 μM), Ovarian Cancer; format: cell-based; details: Homo sapiens, 10 μM, Ovarian Cancer, read-out: Growth percent rate
HCT-116 = experiment: NCI60 five-dose screen, Colon Cancer; format: cell-based; details: Homo sapiens; HCT-116, Colon Cancer; five-dose screen; read-out: GI50
NCI-H460 [13] = experiment: NCI60 one-dose screen (10 μM), Non-small Cell Lung Cancer; format: cell-based; details: Homo sapiens; 10 μM; NCI-H460, Non-small Cell Lung Cancer; read-out: Growth percent rate
OVCAR-4 = experiment: NCI60 five-dose screen, Ovarian Cancer; format: cell-based; details: Homo sapiens; OVCAR-4, Ovarian Cancer; five-dose screen; read-out: GI50
T-47D [14] = experiment: NCI60 one-dose screen (10 μM), Breast Cancer; format: cell-based; details: Homo sapiens, T47D; 10 μM; T-47D, Breast Cancer; read-out: Growth percent rate
CAKI-1 = experiment: NCI60 five-dose screen, Renal Cancer; format: cell-based; details: Homo sapiens; CAKI-1, Renal Cancer; five-dose screen; read-out: GI50
DU-145 [15] = experiment: NCI60 five-dose screen, Prostate Cancer; format: cell-based; details: Homo sapiens; DU-145, Prostate Cancer; five-dose screen; read-out: GI50
MDA-MB-231/ATCC = experiment: NCI60 one-dose screen (10 μM), Breast Cancer; format: cell-based, human; details: Homo sapiens; 10 μM; MDA-MB-231/ATCC, Breast Cancer; read-out: Growth percent rate
HS 578T = experiment: NCI60 five-dose screen, Breast Cancer; format: cell-based; details: Homo sapiens; HS 578T, Breast Cancer; five-dose screen; read-out: GI50

For `CC[C@]12C=CCN3CC[C@@]4(c5ccc(OC)cc5N(C)[C@H]4[C@@](O)(C(=O)OC)[C@@H]1OC(=O)CCC(=O)N1CCN(c4ccc(C(F)(F)F)cc4)CC1)[C@@H]32` [Compound 28], the activity at 10 µM (BT-549) was 12.9%, the activity at 10 µM (MDA-MB-468) was -42.8% and the activity at 10 µM (SR) was 18.4%. The activity at 10 µM (NCI-H226) was 14.9%, the GI50 (EKVX) was 3.63 µM and the GI50 (UACC-62 [1]) was 2.88 µM. The GI50 (K-562) was 1.7 µM, the activity at 10 µM (SK-OV-3) was 37.5% and the GI50 (NCI/ADR-RES [2]) was 3.31 µM. The GI50 (HOP-92 [3]) was 2.09 µM, the GI50 (ACHN) was 3.8 µM and the activity at 10 µM (HOP-92 [4]) was -3.33%. For the same compound, the GI50 (IGROV1) was 3.31 µM, the GI50 (MDA-MB231ATCC) was 4.17 µM and the GI50 (NCI-H460 [5]) was 3.31 µM. The activity at 10 µM (OVCAR-5 [6]) was 2.55%, the GI50 (HOP-62) was 5.5 µM and the activity at 10 µM (SNB-75) was 26.2%. For the same compound, the GI50 (SF-539) was 5.25 µM, the GI50 (TK-10) was 4.07 µM and the GI50 (LOX IMVI) was 3.24 µM. For the same compound, the activity at 10 µM (U251) was 12.4%, the GI50 (OVCAR-5 [7]) was 5.25 µM and the activity at 10 µM (UACC-62 [8]) was -75.8%. For the same compound, the GI50 (HT29) was 2.57 µM, the GI50 (MDA-MB-435) was 3.89 µM and the GI50 (HL-60(TB)) was 1.45 µM. For the same compound, the GI50 (SNB-19) was 4.37 µM, the activity at 10 µM (DU-145 [9]) was 15.4% and the activity at 10 µM (A498) was 21.6%. It also gave an activity at 10 µM [10] of -3.07%, a GI50 (T-47D [11]) of 3.55 µM and a GI50 (SK-MEL-5) of 3.24 µM. It also gave an activity at 10 µM (UO-31) of 10.3%, an activity at 10 µM (PC-3) of 3.75% and a GI50 (SF-268) of 4.07 µM. For the same compound, the activity at 10 µM (NCI/ADR-RES [12]) was 5.44%, the GI50 (HCT-116) was 3.31 µM and the activity at 10 µM (NCI-H460 [13]) was 1.83%. It also gave a GI50 (OVCAR-4) of 4.27 µM, an activity at 10 µM (T-47D [14]) of 38.4% and a GI50 (CAKI-1) of 2 µM. It also gave a GI50 (DU-145 [15]) of 5.25 µM, an activity at 10 µM (MDA-MB-231/ATCC) of -47% and a GI50 (HS 578T) of 4.79 µM.

In the case of `CC[C@]12C=CCN3CC[C@@]4(c5ccc(OC)cc5N(C)[C@H]4[C@@](O)(C(=O)OC)[C@@H]1OC(=O)CCC(=O)N1CCN(Cc4ccc(C(F)(F)F)cc4)CC1)[C@@H]32` [Compound 29], the activity at 10 µM (BT-549) is reported as -54.5%, the activity at 10 µM (MDA-MB-468) is reported as -20.5% and the activity at 10 µM (SR) is reported as -48.3%. It also gave an activity at 10 µM (NCI-H226) of 16.7%, a GI50 (EKVX) of 7.59 µM and a GI50 (UACC-62 [1]) of 11 µM. The GI50 (K-562) was 3.8 µM, the activity at 10 µM (SK-OV-3) was 12.4% and the GI50 (NCI/ADR-RES [2]) was 12.3 µM. The GI50 (HOP-92 [3]) was 4.27 µM, the GI50 (ACHN) was 10.7 µM and the activity at 10 µM (HOP-92 [4]) was -22.6%. It also gave a GI50 (IGROV1) of 10.7 µM, a GI50 (MDA-MB231ATCC) of 14.1 µM and a GI50 (NCI-H460 [5]) of 10.5 µM. For the same compound, the activity at 10 µM (OVCAR-5 [6]) was 15.2%, the GI50 (HOP-62) was 14.1 µM and the activity at 10 µM (SNB-75) was 7.51%. The GI50 (SF-539) was 12.9 µM, the GI50 (TK-10) was 12.3 µM and the GI50 (LOX IMVI) was 13.8 µM. For the same compound, the activity at 10 µM (U251) was 19.1%, the GI50 (OVCAR-5 [7]) was 14.5 µM and the activity at 10 µM (UACC-62 [8]) was -19.7%. It also gave a GI50 (HT29) of 6.76 µM, a GI50 (MDA-MB-435) of 10.5 µM and a GI50 (HL-60(TB)) of 12.9 µM. It also gave a GI50 (SNB-19) of 11.8 µM, an activity at 10 µM (DU-145 [9]) of 20.3% and an activity at 10 µM (A498) of 20.1%. For the same compound, the activity at 10 µM [10] was -1.41%, the GI50 (T-47D [11]) was 5.25 µM and the GI50 (SK-MEL-5) was 3.89 µM. It also gave an activity at 10 µM (UO-31) of 5.16%, an activity at 10 µM (PC-3) of 2.13% and a GI50 (SF-268) of 5.75 µM. It also gave a GI50 (HCT-116) of 7.76 µM, an activity at 10 µM (NCI-H460 [13]) of -11.4% and a GI50 (OVCAR-4) of 5.62 µM. It also gave an activity at 10 µM (T-47D [14]) of 24%, a GI50 (CAKI-1) of 8.71 µM and a GI50 (DU-145 [15]) of 11.2 µM. For the same compound, the activity at 10 µM (MDA-MB-231/ATCC) was 3.02% and the GI50 (HS 578T) was 10.2 µM.
